Counter-ions that a name gives are not always drawn. Like-named read-outs stand apart in the source and are kept apart here. Non-standard residues stand in square brackets, D forms with d. Residues, ends and D or L forms follow the SMILES beside them. Dmt = Cc1cc(O)cc(C)c1C[C@H](N)C(=O)O; Tic = O=C(O)[C@@H]1Cc2ccccc2CN1
Experiments:
δ-opioid receptor [1] = molecular target: T1, δ-opioid receptor (Rattus norvegicus, UniProt P33533); assay: opioid receptor binding competition assay, rat brain P2 synaptosomal membranes (δ)
T1 construct: from tissue; host or cells: rat brain P2 synaptosomal membranes (Sprague-Dawley)
T1 sequence (P33533 whole entry): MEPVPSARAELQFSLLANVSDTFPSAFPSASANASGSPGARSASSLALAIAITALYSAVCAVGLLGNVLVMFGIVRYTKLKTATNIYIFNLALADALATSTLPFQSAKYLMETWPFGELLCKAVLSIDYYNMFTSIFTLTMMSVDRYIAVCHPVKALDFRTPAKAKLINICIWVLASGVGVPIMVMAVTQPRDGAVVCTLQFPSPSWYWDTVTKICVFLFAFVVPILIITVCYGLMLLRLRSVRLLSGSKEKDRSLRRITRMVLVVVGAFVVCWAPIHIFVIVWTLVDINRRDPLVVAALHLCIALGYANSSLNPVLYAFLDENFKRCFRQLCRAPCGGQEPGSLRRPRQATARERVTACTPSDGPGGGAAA
Protocol: (§1) Synaptosomes were preincubated to remove endogenous opioids, washed in excess ice-cold buffer containing protease inhibitor and stored in a glycerol-containing buffer with protease inhibitor at −80° C. as described in Lazarus et al., J. Med. Chem. 34:1350-55 (1991). […] After incubation, the radiolabeled membranes were rapidly filtered on Whatman GF/C glass fiber filters presoaked in 0.1% polyethylenimine in order to optimize the signal-to-noise ratio, washed with ice-cold BSA buffer, and dried at 75-80° C. Radioactivity was determined using EcoLume (ICN, Costa Mesa, Calif.). All compounds were analyzed in duplicate using 5-8 peptide dosages and several synaptosomal preparations in independent repetitions to ensure statistical significance. The affinity constants (Ki) were calculated according to Cheng and Prusoff (Cheng et al., Biochem. Pharmacol., 22: 3099-3108 ([…])).

μ-opioid receptor [2] = molecular target: T2, μ-opioid receptor (Rattus norvegicus, UniProt P33535); assay: opioid receptor binding competition assay, rat brain P2 synaptosomal membranes (μ); conditions: for Ki(δ)/Ki(μ): Table 3, selectivity ratio
T2 construct: from tissue; host or cells: rat brain P2 synaptosomal membranes (Sprague-Dawley)
T2 sequence (P33535 whole entry): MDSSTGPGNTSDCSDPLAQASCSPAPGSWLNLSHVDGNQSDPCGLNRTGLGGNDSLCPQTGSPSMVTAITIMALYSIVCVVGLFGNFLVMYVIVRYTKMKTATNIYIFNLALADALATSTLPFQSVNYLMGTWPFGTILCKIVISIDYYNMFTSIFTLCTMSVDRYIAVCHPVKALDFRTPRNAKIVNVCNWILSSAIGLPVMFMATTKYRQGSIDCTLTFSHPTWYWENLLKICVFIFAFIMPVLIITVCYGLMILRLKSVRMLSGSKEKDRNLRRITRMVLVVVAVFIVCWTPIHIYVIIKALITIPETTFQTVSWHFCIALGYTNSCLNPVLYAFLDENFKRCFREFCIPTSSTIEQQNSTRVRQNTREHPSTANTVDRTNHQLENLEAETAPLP
Protocol: as §1

δ-opioid receptor [3] = molecular target: T3, δ-opioid receptor (Mus musculus, UniProt P32300); assay: mouse vas deferens (MVD) bioassay; assay type: cell-based; conditions: for IC50: read-out: MVD agonist IC50; for MVD Antagonist pA2: versus deltorphin II as agonist
T3 construct: from tissue; host or cells: isolated mouse vas deferens
T3 sequence (P32300 whole entry): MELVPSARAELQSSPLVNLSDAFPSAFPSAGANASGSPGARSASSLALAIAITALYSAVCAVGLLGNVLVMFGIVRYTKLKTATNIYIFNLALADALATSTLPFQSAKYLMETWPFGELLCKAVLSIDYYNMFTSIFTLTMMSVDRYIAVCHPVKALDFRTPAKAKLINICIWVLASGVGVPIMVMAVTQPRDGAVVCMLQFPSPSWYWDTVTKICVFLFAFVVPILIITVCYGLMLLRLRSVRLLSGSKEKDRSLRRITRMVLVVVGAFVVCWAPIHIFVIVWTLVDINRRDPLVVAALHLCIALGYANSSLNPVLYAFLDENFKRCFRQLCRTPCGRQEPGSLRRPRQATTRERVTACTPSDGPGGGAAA
Source text: Bioorg. Med. Chem., 11: 675-678 (2003). The isolated tissues were suspended in organ baths containing balanced salt solutions in a physiological buffer, pH 7.5. […]

μ-opioid receptor [4] = molecular target: μ-opioid receptor (Cavia porcellus, UniProt P97266); assay: guinea pig ileum (GPI) bioassay; assay type: cell-based; conditions: for IC50: read-out: GPI agonist IC50
Sequence of μ-opioid receptor (Cavia porcellus, UniProt P97266) (P97266 whole entry, looked up): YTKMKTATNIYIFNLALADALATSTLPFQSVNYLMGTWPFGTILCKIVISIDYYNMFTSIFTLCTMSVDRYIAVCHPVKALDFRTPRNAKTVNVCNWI
Protocol: The myenteric plexus longitudinal muscle preparations (2-3 cm segments) from the small intestine of male Hartley strain guinea pigs (GP1) measured μ-opioid receptor agonism and a single mouse vas deferens (MVD) was used to determine δ-opioid receptor agonism as described in Sasaki et al. Bioorg. […] The isolated tissues were suspended in organ baths containing balanced salt solutions in a physiological buffer, pH 7.5. Agonists were tested for the inhibition of electrically evoked contraction and expressed as IC50 (nM) obtained from the dose-response curves.

μ-opioid receptor [5] = molecular target: T2, μ-opioid receptor; conditions: Table 3; reference rows marked e, f, g; cited from earlier work
[6] = Table 1, rat brain synaptosomes, footnote a: versus [3H]DAMGO, read-out: Ki(δ)
[7] = Table 1, rat brain synaptosomes, footnote b: versus [3H]DPDPE, read-out: Ki(μ)
[8] = Table 2, inhibition of electrically evoked contraction
[9] = Table 2, versus deltorphin II, antilog of pA2

| Molecule | Ki (δ-opioid receptor [1]; [6]) | Ki(μ)/Ki(δ) (δ-opioid receptor [1]; Table 1, selectivity ratio) | Ki (μ-opioid receptor [2]; [7]) | IC50 (δ-opioid receptor [3]; [8]) | MVD Antagonist pA2 (δ-opioid receptor [3]; Table 2) | MVD Antagonist pA2 (nM), value in parentheses (Ke) (δ-opioid receptor [3]; [9]) | IC50 (μ-opioid receptor [4]; [8]) | other results |
| --- | --- | --- | --- | --- | --- | --- | --- | --- |
| 3-(Dmt-Tic-NH-propyl)-6-(Dmt-Tic-NH-butyl)-2(1H)-pyrazinone [Compound 12] | 0.16 ± 0.025 nM | 10 | 1.56 ± 0.11 nM | > 10000 nM | 10.60 | 0.0251 nM | > 10000 nM |  |
| C=CCN(CC=C)[C@@H](Cc1c(C)cc(O)cc1C)C(=O)N1CCC[C@H]1C(=O)N[C@@H](Cc1ccccc1)C(=O)N[C@@H](Cc1ccccc1)C(N)=O [Compound 30, [N,N-(allyl)2Dmt^1]EM-2] |  |  |  |  |  |  |  | Ki(δ)/Ki(μ) (μ-opioid receptor [2]): 108; GPI pA2 (μ-opioid receptor [4]; Table 4, μ antagonism): None |
| Cc1cc(O)cc(C)c1CC(N)C(=O)N1Cc2ccccc2CC1C(=O)NCc1[nH]c(=O)c(CNC(=O)C2Cc3ccccc3CN2C(=O)C(N)Cc2c(C)cc(O)cc2C)nc1C (stereo not shown) [Compound 8] |  |  |  |  |  |  |  | Ki (δ-opioid receptor [1]): 0.163 ± 0.018 nM; Ki(μ)/Ki(δ) (δ-opioid receptor [1]): 23; Ki (μ-opioid receptor [2]): 3.76 ± 0.3 nM; MVD Antagonist pA2 (nM), value in parentheses (Ke) (δ-opioid receptor [3]): 11.22 (0.006) nM; IC50 (δ-opioid receptor [3]): > 10000 nM; IC50 (μ-opioid receptor [4]): > 10000 nM |
| Cc1cc(O)cc(C)c1CC(N)C(=O)N1Cc2ccccc2CC1C(=O)NCCCCCCNC(=O)C1Cc2ccccc2CN1C(=O)C(N)Cc1c(C)cc(O)cc1C (stereo not drawn) (as salt: HCl) [Compound 19, 1,6-Bis(Dmt-Tic-amino)hexane] |  |  |  |  |  |  |  | melting point: 215 to 217 °C |
| 3,6-Bis(Dmt-Tic-NH-butyl)-2(1H)-pyrazinone [Compound 11] | 0.323 ± 0.007 nM | 5 | 1.74 ± 0.14 nM | > 10000 nM | 11.06 | 0.0871 nM | > 10000 nM |  |
| Cc1cc(O)cc(C)c1CC(C(=O)N1Cc2ccccc2CC1C(=O)NCCCCCCNC(=O)C1Cc2ccccc2CN1C(=O)C(Cc1c(C)cc(O)cc1C)N(C)C)N(C)C (stereo not drawn) (as salt: HCl) [Compound 21, 1,6-Bis(N,N-Dimethyl-Dmt-Tic-NH)-hexane] |  |  |  |  |  |  |  | melting point: 195 to 197 °C |
| Cc1cc(O)cc(C)c1C[C@H](N)C(=O)NCCCCCCNC(=O)[C@@H](N)Cc1c(C)cc(O)cc1C [H-Dmt[NH—(CH2)6—NH]Dmt-H] |  |  |  |  |  |  |  | Ki(δ)/Ki(μ) (μ-opioid receptor [5]): 870 |
| C=CCN(CC=C)[C@@H](Cc1ccc(O)cc1)C(=O)N1CCC[C@H]1C(=O)N[C@@H](Cc1ccccc1)C(=O)N[C@@H](Cc1ccccc1)C(N)=O [Compound 28, [N,N-Diallyl-Tyr^1]EM-2] |  |  |  |  |  |  |  | Ki (δ-opioid receptor [1]): 5760 ± 1220 nM; Ki (μ-opioid receptor [2]): 1050 ± 175 nM; Ki(δ)/Ki(μ) (μ-opioid receptor [2]): 6 |
| 3-(Dmt-Tic-NH-butyl)-6-(Dmt-Tic-NH-propyl)-2(1H)-pyrazinone [Compound 13] | 0.092 ± 0.01 nM | 25 | 2.28 ± 0.03 nM | > 10000 nM | 10.47 | 0.0339 nM | > 10000 nM | GPI Antagonist pA2 (nM), value in parentheses (Ke) (μ-opioid receptor [4]; Table 2, versus endomorphin-2, antilog of pA2): 112 nM; GPI Antagonist pA2 (μ-opioid receptor [4]; Table 2, versus endomorphin-2 as agonist): 6.95 |
| Cc1cc(O)cc(C)c1CC(N)C(=O)N1Cc2ccccc2CC1C(=O)NCCCCCCCCCCNC(=O)C1Cc2ccccc2CN1C(=O)C(N)Cc1c(C)cc(O)cc1C (stereo not shown) (as salt: HCl) [Compound 20, 1,10-Bis(Drat-Tic-amino)decane] |  |  |  |  |  |  |  | melting point: 205 to 207 °C |
| 3,6-Bis(Dmt-Tic-NH-propyl)˜2(1H)-pyrazinone [Compound 10] | 0.155 ± 0.016 nM | 20 | 3.08 ± 0.17 nM | > 10000 nM | 10.56 | 0.0275 nM | 7020 ± 2470 nM |  |
| Cc1cc(O)cc(C)c1C[C@H](N)C(=O)N1Cc2ccccc2C[C@H]1C(=O)O [H-Dmt-Tic-OH, reference compound] (H-[Dmt]-[Tic]-OH) |  |  |  |  |  |  |  | MVD agonist IC50, nM (δ-opioid receptor [3]; [8]): none |
